According to patent US12558442B2, “Biological fluid treatment systems” (priority 2019, dated 2026):

Test system: Klebsiella pneumoniae
Assay: Photochemical inactivation of K. pneumoniae in plasma or platelets in PAS with amotosalen and UVA LED illumination
Format: cell-based
Details: 150 μM amotosalen nominal, triplicate

## Cc1oc2c(C)c3oc(=O)cc(C)c3cc2c1COCCN [S-59, 3-(2-aminoethoxymethyl)-2,5,9-trimethylfuro[3,2-g]chromen-7-one]
plasma, INTERCEPT plasma set, 6.4 J/cm^2, UVA LEDs 346-349 nm
  Log Inactivation: 6.3 ± 0.3 log
plasma, INTERCEPT plasma set, 6.4 J/cm^2, UVA LEDs 346-349 nm, listed as amotosalen
  Log Inactivation: 6.3±0.3 log
platelets/PAS, LV set, 3.9 J/cm^2, UVA LEDs 346-349 nm
  Log Inactivation: 7.2 ± 0.2 log
platelets/PAS, LV set, 3.9 J/cm^2, UVA LEDs 346-349 nm, listed as amotosalen
  Log Inactivation: 7.2±0.2 log
